The text below walks through data of PubChem BioAssay (NCI).

SMILES strings stand for the structures. Several values for one entry are separate records, joined by “and”; a condition that tells them apart may be missing. Identical values can stand only once.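 Five compound concentrations were applied to cells in 96-well plates for 48 hours; endpoints were derived by simple linear interpolation of the resulting dose-response curve. Here, GI50 denotes the concentration required for 50% inhibition of growth. TGI is the concentration that stops growth completely.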 Some results are limits rather than exact numbers.

For the test, the system named is MDA-MB-468 breast. The test is described as follows: NCI tumour cell line growth inhibition, 48 h.
In the case of `CN1CCCN(CCNc2nccc(-c3c(-c4cccc(O)c4)nc4sccn34)n2)S1(=O)=O`, the GI50 is 9.05 µM and 10.7 µM; the TGI was 24.1 µM and 53 µM.
Turning to `CC1=CC(=O)CC(C)(C)[C@@]1(O)/C=C/C(C)=C\C(=O)O`, the GI50 is 0.116 µM and the TGI was 0.308 µM.
Taken in the same sequence, the figures for `Clc1ccc(COC(Cn2ccnc2)c2ccc(Cl)cc2Cl)cc1` (stereo not given) were 2.02 µM and 6.81 µM.
Taken in the same sequence, the figures for `C#C[C@]1(O)CC[C@H]2[C@@H]3CC=C4c5nc(Nc6ccccn6)sc5CC[C@]4(C)[C@H]3CC[C@@]21C` were 1.62 µM and 5.15 µM.
Taken in the same sequence, the figures for `COc1cc(/C=C2\CN(C)CC3=C2Nc2nc(SC)[nH]c(=O)c2C3c2cc(OC)c(OC)c(OC)c2)cc(OC)c1OC` (stereo not given) were 2.2 µM and 10.6 µM.
With `CCNCCCn1c2c(c3cc(OC)c(OC)cc3c1=O)C(=O)c1cc(OC)cnc1-2`, the GI50 is 0.31 µM and the TGI stood at 1.44 µM.
Taken in the same sequence, the figures for `O=C(Nc1ccc(OC(F)(F)F)cc1)c1sccc1NCc1ccnc2ccccc12` were 1.52 µM and 19.8 µM.
On to `CCN(c1ccc(CO)c(Cl)c1)C(C)c1ccc(F)cc1` (stereo not given), for which the GI50 was 0.64 µM and the TGI was 5.26 µM.
As for `Cc1ccc(C(=O)Nc2ccc(CN3CCN(C)CC3)c(C(F)(F)F)c2)cc1C#Cc1cnc(N)c2ccc(F)cc12`, the GI50 is 0.359 µM and the TGI came out at 1.19 µM.
For the compound `NS(=O)(=O)c1ccc(N2Cc3cc(Cl)ccc3OC3=C2C(=O)N(CC2CCCCC2)C3=O)cc1`, the GI50 is 0.962 µM and the TGI is 2.73 µM.
Taken in the same sequence, the figures for `S=C(N/N=C/c1cc(Cl)cc(Cl)c1)NC12CC3CC(CC(C3)C1)C2` were 16.8 µM and greater than 100 µM.
As for `C#Cc1nc(/C=C/C(=O)NO)cs1`, the GI50 was 1.11 µM and the TGI stood at 4.16 µM.
Turning to `N=C(N)c1ccc(-c2ccc(-c3ccc(Cl)cc3Cl)o2)cc1`, the GI50 was 1.94 µM and the TGI worked out at 3.68 µM.
Taken in the same sequence, the figures for `Cc1ccc(C(=O)/C(=C/c2ccc([N+](=O)[O-])cc2)S(=O)Cc2ccccc2)cc1` (stereo not given) were 1.71 µM and 4.07 µM.
Taken in the same sequence, the figures for `COc1cc(-c2csc(NC(=O)c3cc(C(F)(F)F)cc(C(F)(F)F)c3)n2)cc(OC)c1OC` were 1.64 µM and 7.02 µM.
Taken in the same sequence, the figures for `CC[C@H](C)[C@H](NC(=O)c1cnccn1)C(=O)N(C)[C@H](C[C@@H](OC(C)=O)c1nc(C(=O)N[C@@H](Cc2ccccc2)C[C@H](C)C(=O)OC)cs1)C(C)C` were 0.595 µM and 29.8 µM.
`COc1ccc(-c2cc(-c3ccc(Cl)cc3)c(C#N)c(=O)n2CCCCC(=O)Nc2ccccc2N)cc1`: the GI50 was 5.68 µM and the TGI is 67.5 µM.
Taken in the same sequence, the figures for `C[n+]1cc2c3c(ccc2c2ccc4cc5c(cc4c21)OCO5)OCO3` were 1.05 µM and 2.48 µM.
For `CCN(CCCCCCCCCCN1CC(=O)N(CCCCCCCCCCN(CC)Cc2ccccc2OC)CC1=O)Cc1ccccc1OC`, the GI50 was 1.11 µM and the TGI is 2.5 µM.
Take `N/C(=N\OC(=O)c1ccccc1)C(C(=O)NOC(=O)c1ccccc1)C1CCCCC1` (stereo not given): the GI50 is 13.3 µM and the TGI stood at 29.4 µM.
On to `CCOC(=O)c1c(NC(=O)c2ccc(C(C)C)cc2)sc2c(CN(C)C)c(O)ccc12`, for which the GI50 was 1.88 µM and the TGI is 4.09 µM.
Taken in the same sequence, the figures for `COC(=O)c1ccc2c(c1)C(NC(C)=O)CCc1cc(OC)c(OC)c(OC)c1-2` (stereo not given) were 0.0184 µM and greater than 100 µM.
For the compound `Fc1cccc(COc2ccc(Nc3ncnc4sc(-c5ccco5)cc34)cc2Cl)c1`, the GI50 was greater than 17.7 µM and the TGI is greater than 25 µM.
Regarding `Cn1cc(C2=C(c3cn(C)c4ccc(N)cc34)C(=O)NC2=O)c2ccccc21`, the GI50 is 7.35 µM and the TGI was greater than 25 µM.
As to `COc1cc(Nc2ccnc(N3CCN(c4ccnc5cc(Cl)ccc45)CC3)n2)cc(OC)c1`, the GI50 was 0.832 µM and the TGI was greater than 84.9 µM.
`CC(C)n1c(/C=C/[C@@H](O)C[C@@H](O)CC(=O)O)c(-c2ccc(F)cc2)c2ccccc21`: the GI50 is 5.72 µM and 2.55 µM; the TGI is greater than 100 µM.
Consider `CC1(C)N=C(N)N=C(N)N1c1ccc(CCc2ccccc2)c(Cl)c1`, for which the GI50 is 0.0555 µM and the TGI is 1.34 µM.
On to `COc1ccc(C(=O)N2c3ccccc3Sc3ccccc32)c(F)c1`, for which the GI50 is 0.413 µM and the TGI is greater than 100 µM.
As for `CS(=O)(=O)c1ccc(Cl)c([N+](=O)[O-])c1`, the GI50 is 1.6 µM and the TGI came to 3.47 µM.
For the compound `C[C@]12CC[C@@H]3c4ccc(O)c([N+](=O)[O-])c4CC[C@H]3[C@@H]1CC[C@@H]2NS(=O)(=O)c1ccc(C(F)(F)F)cc1`, the GI50 is 2.18 µM and the TGI was found to be 6.29 µM.
Taken in the same sequence, the figures for `CNC(=O)Nc1ccc(-c2nc(N3CCOCC3)nc3c2cnn3C2CCOCC2)cc1` were 0.151 µM and 0.936 µM.
Consider `Cc1cccc(NC(=O)c2sc3nc4c(cc3c2N)CCCC4)c1C`, for which the GI50 was 0.339 µM and the TGI was greater than 100 µM.
Take `Cc1cc(N(CCNc2ccnc3cc(Cl)ccc23)Cc2ccc3c(c2)OCO3)nc(N2CCN(C)CC2)n1`: the GI50 is 1.87 µM and the TGI was determined as 4.02 µM.
Taken in the same sequence, the figures for `COc1ccc(Cl)cc1Nc1nc(C(F)(F)F)ccc1C(=O)NN` were 3.88 µM and greater than 85.9 µM.
As to `CCN1CCN(Cc2ccc(NC(=O)Nc3ccc(-n4ccc5c(NC(=O)c6ccccc6)nccc54)cc3)cc2C(F)(F)F)CC1`, the GI50 was 1.77 µM and the TGI came out at 3.3 µM.
